Laboratory results taken from patent US20250129069A1, “TRIAZOLO WRN INHIBITORS” (Nimbus Wadjet, Inc., priority 2023, published 2025).
Where two headings read alike, the source gives them in different places.

System: p21 induction in HCT 116 cells
Assay: p21 induction in cells (In-Cell Western, p21/GAPDH ratio)
Format: cell-based
Conditions: 24 h compound incubation, read-out: p21_EC50
Method: The colon carcinoma cell line HCT 116 was obtained from ATCC and cultured in growth medium consisting of Mccoy's 5A Medium (Gibco 16600108) supplemented with 10% FBS (Transgene FS201-02) and 100 units/mL penicillin-streptomycin (Gibco 15140122) and maintained at 37° C. under 5% CO2. On the day of seeding, 2,000 cells in 30 μL of culture media were plated per well to Poly-D-Lysine 384 Well Black Clear Plates (Biocoat 356663) and incubated overnight at 37° C. under 5% CO2. The following day, compounds were serially diluted in DMSO for a total of 11 test concentrations. The typical starting concentration of compounds was 10 μM with 2-fold dilutions. Next, 150 nL of diluted compound was added in duplicate to the assay plate, using an Echo 655 (Labcyte). The plate was centrifuged at 500 RPM for 1 min and then incubated at 37° C. under 5% CO2 for 24 h. After 24 h, medium was removed, and cells were fixed by adding 40 μL of 4% paraformaldehyde solution to each well and incubated for 20 min at room temperature. The plate was then washed 4 times with 100 μL per well of wash buffer (PBS with 0.1% Tween-20) using a microplate washer. Next, 30 μL of ice-cold methanol was added to each well and the plate was incubated at −20° C. for 10 min. The plate was washed 4 times with 100 μL per well of wash buffer by a microplate washer, then 30 μL per well of blocking buffer ((Intercept PBS blocking buffer (LI-COR 927-70001) with 0.05% Tween-20)) was added and the plate was incubated at room temperature with shaking for 2 h. Next, to each test well, 20 μL of primary antibody solution (p21 Wafl/CIP (12D1) RabbitmAb (Cell Signaling Technologies 2947) diluted 1:1000 and GAPDH (D4C6R) Mouse mAb (Cell Signaling Technologies 97166) diluted 1:2000 in blocking buffer) was added and the plate was placed at 4° C., overnight. The following day, the plate was washed 5 times with 100 μL per well of wash buffer using a microplate washer for 5 min. 20 μL per well of secondary antibody (IRDye 680CW Goat anti-Mouse IgG (H+L) (LI-COR 926-68070) diluted 1:2000 in Blocking Buffer and IRDye 800CW Goat anti-Rabbit IgG (H+L) (LI-COR 926-32211) diluted 1:2000 in Blocking Buffer) was then added and the plate was stored for 2 h in the dark at room temperature with shaking. The plate was then washed 4 times with 100 μL per well of wash buffer again using a microplate washer. Finally, the p21 signal and the GAPDH signal were quantified using a LI-COR Odyssey CLx Imager machine reading at 800 nm and 700 nm, respectively. Each plate contained DMSO control (low control) and an internal reference WRN inhibitor (high control) respectively. For quantitation, the 800 nm/700 nm ratio was calculated for each well to give fold p21 induction and then percent activation for each compound well was calculated as follows (100×(ratio cpd well-ratio low control)/(ratio high control−ratio low control). EC50 values for each compound was generated after non-linear regression curve fitting using commercially available software.

Compound	EC50 (Homo sapiens)	EC50
CCc1c(N2CCN(C(=O)c3c(F)cnc(OC)c3O)[C@H]3CC[C@@H]32)c(=O)c2nn(C3=CCOCC3)nc2n1CC(=O)NC12CC(C3CC3)(C1)C2 [Compound I-183, N-{3-cyclopropylbicyclo[1.1.1]pentan-1-yl}-2-[2-(3,6-dihydro-2H-pyran-4-yl)-5-ethyl-6-[(1S,6S)-5-(5-fluoro-3-hydroxy-2-methoxypyridine-4-carbonyl)-2,5-diazabicyclo[4.2.0]octan-2-yl]-7-oxo-2H,4H,7H-[1,2,3]triazolo[4,5-b]pyridin-4-yl]acetamide]	≤ 500 nM	–
CCc1c(N2CCN(C(=O)c3c(OC)ccc4ncoc34)[C@H]3CC[C@@H]32)c(=O)c2nn(C3=CCOCC3)nc2n1CC(=O)NC12CC(C3CC3)(C1)C2 [Compound I-192, N-{3-cyclopropylbicyclo[1.1.1]pentan-1-yl}-2-[2-(3,6-dihydro-2H-pyran-4-yl)-5-ethyl-6-[(1S,6S)-5-(6-methoxy-1,3-benzoxazole-7-carbonyl)-2,5-diazabicyclo[4.2.0]octan-2-yl]-7-oxo-2H,4H,7H-[1,2,3]triazolo[4,5-b]pyridin-4-yl]acetamide]	≤ 500 nM	–
CCc1c(N2CCN(C(=O)c3ncnc(C)c3O)CC2)c(=O)c2nn(C3=CCOCC3)nc2n1CC(=O)NC12CC(C(C)C)(C1)C2 [Compound I-38, 2-[2-(3,6-dihydro-2H-pyran-4-yl)-5-ethyl-6-[4-(5-hydroxy-6-methylpyrimidine-4-carbonyl)piperazin-1-yl]-7-oxo-2H,4H,7H-[1,2,3]triazolo[4,5-b]pyridin-4-yl]-N-[3-(propan-2-yl)bicyclo[1.1.1]pentan-1-yl]acetamide]	500 to 2000 nM	–
CCc1c(N2CCN(C(=O)c3ncnc(C)c3O)[C@H]3CC[C@@H]32)c(=O)c2nn(C3=CCOCC3)nc2n1CC(=O)NC1CC2(CCC2)C1 [Compound I-197, 2-[2-(3,6-dihydro-2H-pyran-4-yl)-5-ethyl-6-[(1S,6S)-5-(5-hydroxy-6-methylpyrimidine-4-carbonyl)-2,5-diazabicyclo[4.2.0]octan-2-yl]-7-oxo-2H,4H,7H-[1,2,3]triazolo[4,5-b]pyridin-4-yl]-N-{spiro[3.3]heptan-2-yl}acetamide]	≤ 500 nM	–
CCc1c(N2CCN(C(=O)c3c(O)c(F)cc4ncoc34)[C@H]3CC[C@@H]32)c(=O)c2nn(C3=CCOCC3)nc2n1CC(=O)NC12CC(C3CC3)(C1)C2 [Compound I-194, N-{3-cyclopropylbicyclo[1.1.1]pentan-1-yl}-2-[2-(3,6-dihydro-2H-pyran-4-yl)-5-ethyl-6-[(1S,6S)-5-(5-fluoro-6-hydroxy-1,3-benzoxazole-7-carbonyl)-2,5-diazabicyclo[4.2.0]octan-2-yl]-7-oxo-2H,4H,7H-[1,2,3]triazolo[4,5-b]pyridin-4-yl]acetamide]	≤ 500 nM	–
CCc1c(N2CCN(C(=O)c3ncnc(C)c3O)[C@H]3CC[C@@H]32)c(=O)c2nn(-c3ccnc(OC)c3)nc2n1CC(=O)Nc1ccc(C(F)(F)F)cc1Cl [Compound I-55, N-[2-chloro-4-(trifluoromethyl)phenyl]-2-{5-ethyl-6-[(1S,6S)-5-(5-hydroxy-6-methylpyrimidine-4-carbonyl)-2,5-diazabicyclo[4.2.0]octan-2-yl]-2-(2-methoxypyridin-4-yl)-7-oxo-2H,4H,7H-[1,2,3]triazolo[4,5-b]pyridin-4-yl}acetamide]	≤ 500 nM	–

The next lines start with the values.

EC50 (Homo sapiens)	EC50	Compound
≤ 500 nM	–	CCc1c(N2CCN(C(=O)c3ncnc(C)c3O)[C@H]3CCC[C@@H]32)c(=O)c2nn(C3=CCOCC3)nc2n1CC(=O)NC12CC(C3CC3)(C1)C2 [Compound I-39, 2-{6-[(4aS,7aS)-4-(5-hydroxy-6-methylpyrimidine-4-carbonyl)-octahydro-1H-cyclopenta[b]pyrazin-1-yl]-2-(3,6-dihydro-2H-pyran-4-yl)-5-ethyl-7-oxo-2H,4H,7H-[1,2,3]triazolo[4,5-b]pyridin-4-yl}-N-{3-cyclopropylbicyclo[1.1.1]pentan-1-yl}acetamide]
500 to 2000 nM	–	CCc1c(N2CCN(C(=O)c3ncnc(C)c3O)[C@H]3CC[C@@H]32)c(=O)c2nn(-c3ccnc(OC)c3)cc2n1CC(=O)NC12CC(C3CC3)(C1)C2 [Compound I-188, N-{3-cyclopropylbicyclo[1.1.1]pentan-1-yl}-2-{5-ethyl-6-[(1S,6S)-5-(5-hydroxy-6-methylpyrimidine-4-carbonyl)-2,5-diazabicyclo[4.2.0]octan-2-yl]-2-(2-methoxypyridin-4-yl)-7-oxo-2H,4H,7H-pyrazolo[4,3-b]pyridin-4-yl}acetamide]
≤ 500 nM	–	CCc1c(N2CCN(C(=O)c3ncnc(C)c3O)[C@H]3CC[C@@H]32)c(=O)c2nn(C3=CCOCC3)nc2n1CC(=O)NC12CC(C(C)(C)C)(C1)C2 [Compound I-196, N-{3-tert-butylbicyclo[1.1.1]pentan-1-yl}-2-[2-(3,6-dihydro-2H-pyran-4-yl)-5-ethyl-6-[(1S,6S)-5-(5-hydroxy-6-methylpyrimidine-4-carbonyl)-2,5-diazabicyclo[4.2.0]octan-2-yl]-7-oxo-2H,4H,7H-[1,2,3]triazolo[4,5-b]pyridin-4-yl]acetamide]
≤ 500 nM	–	CCc1c(N2CCN(C(=O)c3ncnc(C)c3O)[C@H]3CC[C@@H]32)c(=O)c2nn(-c3ccnc(C(F)(F)F)c3)nc2n1CC(=O)NC12CC(C3CC3)(C1)C2 [Compound I-176, N-{3-cyclopropylbicyclo[1.1.1]pentan-1-yl}-2-{5-ethyl-6-[(1S,6S)-5-(5-hydroxy-6-methylpyrimidine-4-carbonyl)-2,5-diazabicyclo[4.2.0]octan-2-yl]-7-oxo-2-[2-(trifluoromethyl)pyridin-4-yl]-2H,4H,7H-[1,2,3]triazolo[4,5-b]pyridin-4-yl}acetamide]
≤ 500 nM	–	CCc1c(N2CCN(C(=O)c3ncnc(C)c3O)[C@H]3CC[C@@H]32)c(=O)c2nn(C3=CCN(CC(F)F)CC3)nc2n1CC(=O)NC12CC(C3CC3)(C1)C2 [Compound I-185, N-{3-cyclopropylbicyclo[1.1.1]pentan-1-yl}-2-{2-[1-(2,2-difluoroethyl)-1,2,3,6-tetrahydropyridin-4-yl]-5-ethyl-6-[(1S,6S)-5-(5-hydroxy-6-methylpyrimidine-4-carbonyl)-2,5-diazabicyclo[4.2.0]octan-2-yl]-7-oxo-2H,4H,7H-[1,2,3]triazolo[4,5-b]pyridin-4-yl}acetamide]
≤ 500 nM	–	CCc1c(N2CCN(C(=O)c3ncnc(C)c3O)[C@H]3CC[C@@H]32)c(=O)c2nn(-c3ccnc(C(F)F)c3)nc2n1CC(=O)NC12CC(C3CC3)(C1)C2 [Compound I-182, N-{3-cyclopropylbicyclo[1.1.1]pentan-1-yl}-2-{2-[2-(difluoromethyl)pyridin-4-yl]-5-ethyl-6-[(1S,6S)-5-(5-hydroxy-6-methylpyrimidine-4-carbonyl)-2,5-diazabicyclo[4.2.0]octan-2-yl]-7-oxo-2H,4H,7H-[1,2,3]triazolo[4,5-b]pyridin-4-yl}acetamide]
≤ 500 nM	–	CCc1c(N2CCN(C(=O)c3ncnc(C)c3O)[C@H]3CC[C@@H]32)c(=O)c2nn(C3=CCC(OC)CC3)nc2n1CC(=O)NC12CC(C3CC3)(C1)C2 (stereo partly drawn) [Compound I-173, N-{3-cyclopropylbicyclo[1.1.1]pentan-1-yl}-2-{5-ethyl-6-[(1S,6S)-5-(5-hydroxy-6-methylpyrimidine-4-carbonyl)-2,5-diazabicyclo[4.2.0]octan-2-yl]-2-(4-methoxycyclohex-1-en-1-yl)-7-oxo-2H,4H,7H-[1,2,3]triazolo[4,5-b]pyridin-4-yl}acetamide]
–	≤ 500 nM	CCc1c(N2CCN(C(=O)c3ncnc(C)c3O)[C@H]3CC[C@@H]32)c(=O)c2nn(-c3ccnc(OC)c3)nc2n1CC(=O)NC12CC(C3CCC3)(C1)C2 [Compound I-62, N-{3-cyclobutylbicyclo[1.1.1]pentan-1-yl}-2-{5-ethyl-6-[(1S,6S)-5-(5-hydroxy-6-methylpyrimidine-4-carbonyl)-2,5-diazabicyclo[4.2.0]octan-2-yl]-2-(2-methoxypyridin-4-yl)-7-oxo-2H,4H,7H-[1,2,3]triazolo[4,5-b]pyridin-4-yl}acetamide]
